The test system of assay [1] is duodenal mucosal alkaline secretion. The assay is described as follows: Test C: duodenal mucosal alkaline secretion assay in barbiturate-anaesthetised rats. In kind it is in vivo, rat. Conditions: co-administration with title compounds of the Examples. An excerpt:
Duodenal Mucosal Alkaline Secretion Assay
Compounds were exposed to the duodenal mucosa in barbiturate-anaesthetised rats prepared for in situ titration of duodenal mucosal alkaline secretion, according to the methodology described by Flemström et al in Am. J. Physiol. (1982) 243, G348.

The next assay concerns the target T1, AT2 receptor (Sus scrofa, UniProt A0A4X1W622).
T1 sequence (A0A4X1W622 1-362): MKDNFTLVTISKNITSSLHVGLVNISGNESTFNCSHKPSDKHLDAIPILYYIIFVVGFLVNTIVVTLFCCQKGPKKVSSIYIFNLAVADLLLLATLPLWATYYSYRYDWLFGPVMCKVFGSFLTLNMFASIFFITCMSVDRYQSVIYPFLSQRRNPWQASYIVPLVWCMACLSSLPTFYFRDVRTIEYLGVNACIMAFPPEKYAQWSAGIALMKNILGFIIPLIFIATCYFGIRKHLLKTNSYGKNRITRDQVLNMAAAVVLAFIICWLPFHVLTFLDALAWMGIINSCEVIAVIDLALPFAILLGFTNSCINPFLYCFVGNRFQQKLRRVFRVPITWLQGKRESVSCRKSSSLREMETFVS
Conditions: read-out: dissociation constant (Kd), AT2 receptor; Scatchard analysis, porcine myometrial membranes, [L]=0.057 nM.

Broadly, the Kd is the constant that tells how readily two partners part at equilibrium.

Description for AT2 receptor: Myometrial membranes were prepared from porcine uteri according to the method by Nielsen et al (Clin. Exp. Pharm. Phys. (1997) 24, 309). […] Samples were incubated at 25° C. for 1 h, and binding was terminated by filtration through Whatman GF/B glass-fiber filter sheets using a Brandel cell harvester. The filters were washed with 3×3 mL of Tris-HCl (pH 7.4) and transferred to tubes. The radioactivity was measured using a gamma counter. […] The binding data were best fitted with a one-site fit. All experiments were performed at least in triplicate.

Regarding `Cc1cc(Cn2cnc3c2C[C@@H](C(=O)O)N(C(=O)C(c2ccccc2)c2ccccc2)C3)ccc1N(C)C` [PD123319], the “effect of co-administration on the stimulation of mucosal alkalisation by the title compounds” value in assay [1] is “blocked”.

Consider “Asp^1-Arg^2-Val^3-Tyr^4-Ile^5-His^6-Pro^7-Phe^8 [Ang II]”, for which the Kd on AT2 receptor came out at 0.7 ± 0.1 nM.

Values taken from patent US8357710B2, “Bicyclic angiotensin II agonists” (Vicore Pharma AB, priority 2005, dated 2013).
